Reference: US20170050980A1, “OXADIAZINE COMPOUNDS AND METHODS OF USE THEREOF” (FORUM Pharmaceuticals Inc., priority 2015, published 2017)
pIC50: −log10 of the molar value.

The molecules below were run on Aβ42 (assay: In vitro cell screening assay; quantification of Aβ (1-42) peptide by sandwich ELISA). Settings: Human neuroglioma H4 cells stably expressing human wild type APP751; compounds 0.003-10 μM, incubated overnight (16-18 h); Aβ42 in supernatant by sandwich ELISA; normalized to DMSO and DAPT; read-out: Aβ42 H4 Prot Fre IC50.
Format: cell-based
Outline: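 Stable H4 neuroglioma line expressing human wild-type APP751; compounds 0.003-10 μM (0.33% DMSO final) added in Pro293 medium 6 h after plating, incubated overnight (16-18 h) at 37 °C. Secreted Aβ42 measured in supernatant by C-terminal-capture sandwich ELISA with 4G8-HRP detection; IC50 by sigmoidal fit, normalized to DMSO and DAPT.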

Row | Structure (SMILES) | pIC50
1 | COc1nc(C2=NOC(C)C(c3ccc(Cl)c(Cl)c3)N2)ccc1-n1cnc(C)c1 (stereo not drawn) [Example 19B, (+)-cis-5-(3,4-dichlorophenyl)-3-[6-methoxy-5-(4-methyl-1H-imidazol-1-yl)pyridin-2-yl]-6-methyl-5,6-dihydro-4H-1,2,4-oxadiazine] | 8.22
2 | COc1nc(C2=NOC(C3CC3)C(c3ccc(Cl)cc3)N2)ccc1-n1cnc(C)c1 (stereo not drawn) [Example 20A, (−)-cis-5-(4-chlorophenyl)-6-cyclopropyl-3-[6-methoxy-5-(4-methyl-1H-imidazol-1-yl)pyridin-2-yl]-5,6-dihydro-4H-1,2,4-oxadiazine] | 5.75
3 | COc1nc(C2=NOC(C3CC3)C(c3ccc(Cl)cc3)N2)ccc1-n1cnc(C)c1 (stereo not drawn) [Example 20B, (+)-cis-5-(4-chlorophenyl)-6-cyclopropyl-3-[6-methoxy-5-(4-methyl-1H-imidazol-1-yl)pyridin-2-yl]-5,6-dihydro-4H-1,2,4-oxadiazine] | 8.05
4 | COc1nc(C2=NOC(C)C(c3ccc(Cl)cc3)N2)ccc1-n1cnc(C)c1 (stereo not drawn) [Example 24A, (−)-trans-5-(4-chlorophenyl)-3-[6-methoxy-5-(4-methyl-1H-imidazol-1-yl)pyridin-2-yl]-6-methyl-5,6-dihydro-4H-1,2,4-oxadiazine] | 5.92
5 | COc1nc(C2=NOC(C)C(c3ccc(Cl)cc3)N2)ccc1-n1cnc(C)c1 (stereo not drawn) [Example 24B, (+)-trans-5-(4-chlorophenyl)-3-[6-methoxy-5-(4-methyl-1H-imidazol-1-yl)pyridin-2-yl]-6-methyl-5,6-dihydro-4H-1,2,4-oxadiazine] | 7.82
6 | COc1nc(C2=NOC(C)C(c3nn(C)c4ccc(Cl)cc34)N2)ccc1-n1cnc(C)c1 (stereo not drawn) [Example 69A, (+)-(cis)-5-(5-chloro-1-methyl-1H-indazol-3-yl)-3-(6-methoxy-5-(4-methyl-1H-imidazol-1-yl)pyridin-2-yl)-6-methyl-5,6-dihydro-4H-1,2,4-oxadiazine] | 8.23
7 | COc1nc(C2=NOC(C)C(c3nn(C)c4ccc(Cl)cc34)N2)ccc1-n1cnc(C)c1 (stereo not drawn) [Example 69B, (−)-(cis)-5-(5-chloro-1-methyl-1H-indazol-3-yl)-3-(6-methoxy-5-(4-methyl-1H-imidazol-1-yl)pyridin-2-yl)-6-methyl-5,6-dihydro-4H-1,2,4-oxadiazine] | 6.15
8 | COc1nc(C2=NO[C@H](c3ccc(Cl)cc3)[C@H](C)N2)ccc1-n1cnc(C)c1 [Example 71A, (5S,6R)-6-(4-chlorophenyl)-3-(6-methoxy-5-(4-methyl-1H-imidazol-1-yl)pyridin-2-yl)-5-methyl-5,6-dihydro-4H-1,2,4-oxadiazine] | 7.90
